Holding throughout (assay): relative viability (nuclei count vs DMSO), 5 days (fraction); higher = more cells survive
Compound in assay [1]: Cc1ccc(-n2nc(C(C)(C)C)cc2NC(=O)Nc2ccc(OCCN3CCOCC3)c3ccccc23)cc1 [Doramapimod] + CC(=O)c1c(C)c2cnc(Nc3ccc(N4CCNCC4)cn3)nc2n(C2CCCC2)c1=O [Palbociclib] (partner 0.5 µM)
The method in brief: (§1)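 The day after seeding in 1536-well plates, lung cancer cell lines were treated by pin tool with a single drug, or with a fixed anchor-drug dose together with five library-drug doses (not always all listed) in √10 steps. After 5 days, a combined fix-and-stain solution (final 0.05% Triton X-100, 1% formaldehyde, 1 ug/ml Hoechst) was added. Nuclei counted on 4× images gave relative viability as treated counts over vehicle counts, reported as the median of duplicate plates.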

Compound in the assay “RAF265 + AZD7762”: Cn1c(Nc2ccc(C(F)(F)F)cc2)nc2cc(Oc3ccnc(-c4ncc(C(F)(F)F)[nH]4)c3)ccc21 [RAF265] + NC(=O)Nc1cc(-c2cccc(F)c2)sc1C(=O)N[C@H]1CCCNC1 [AZD7762] (partner 0.2 µM)
Summed up:
as §1

Compound in the assay “IPA-3 + Dasatinib”: C1=CC=C2C(=C1)C=CC(=C2SSC3=C(C=CC4=CC=CC=C43)O)O [IPA-3] + Cc1nc(Nc2ncc(C(=O)Nc3c(C)cccc3Cl)s2)cc(N2CCN(CCO)CC2)n1 [Dasatinib] (partner 0.075 µM)
The method in brief:
as §1

Compound in the assay “Doramapimod + Navitoclax”: Cc1ccc(-n2nc(C(C)(C)C)cc2NC(=O)Nc2ccc(OCCN3CCOCC3)c3ccccc23)cc1 [Doramapimod] + CC1(C)CCC(c2ccc(Cl)cc2)=C(CN2CCN(c3ccc(C(=O)NS(=O)(=O)c4ccc(N[C@H](CCN5CCOCC5)CSc5ccccc5)c(S(=O)(=O)C(F)(F)F)c4)cc3)CC2)C1 [Navitoclax] (partner 0.5 µM)
Summed up: as §1

For the cell line NCI-H2347, the relative viability was found to be 0.474 in assay [1] (first compound 0.02 µM); 0.466 in assay [1] (first compound 0.06325 µM); 0.483 in assay [1] (first compound 0.2 µM); 0.383 in assay [1] (first compound 0.6325 µM); 0.513 in assay [1] (first compound 2 µM); 0.74 with RAF265 + AZD7762 (first compound 0.01 µM). Besides, the relative viability was 0.7 with RAF265 + AZD7762 (first compound 0.03162 µM); 0.832 with RAF265 + AZD7762 (first compound 0.1 µM); 0.46 in the assay with RAF265 + AZD7762 (first compound 0.3162 µM); 0.22 with RAF265 + AZD7762 (first compound 1 µM); 0.357 with IPA-3 + Dasatinib (first compound 0.2 µM); 0.305 with IPA-3 + Dasatinib (first compound 0.6325 µM). Moreover, the relative viability amounted to 0.336 with IPA-3 + Dasatinib (first compound 2 µM); 0.41 in the assay with IPA-3 + Dasatinib (first compound 6.325 µM); 0.336 with IPA-3 + Dasatinib (first compound 20 µM); 0.947 with Doramapimod + Navitoclax (first compound 0.02 µM); 0.726 with Doramapimod + Navitoclax (first compound 0.06325 µM); 0.793 with Doramapimod + Navitoclax (first compound 0.2 µM). The relative viability with Doramapimod + Navitoclax (first compound 0.6325 µM) was 0.761; with Doramapimod + Navitoclax (first compound 2 µM) it was 0.821.
Turning to NCI-H2405, the relative viability in assay [1] (first compound 0.02 µM) came to 0.531; in assay [1] (first compound 0.06325 µM), 0.487; in assay [1] (first compound 0.2 µM) it was 0.505; in assay [1] (first compound 0.6325 µM), 0.575; in assay [1] (first compound 2 µM), 0.495; with RAF265 + AZD7762 (first compound 0.01 µM), 0.849. Besides, the relative viability in the assay with RAF265 + AZD7762 (first compound 0.03162 µM) amounted to 0.723; with RAF265 + AZD7762 (first compound 0.1 µM), 0.634; in the assay with RAF265 + AZD7762 (first compound 0.3162 µM), 0.549; with RAF265 + AZD7762 (first compound 1 µM), 0.326; with IPA-3 + Dasatinib (first compound 0.2 µM), 0.221; with IPA-3 + Dasatinib (first compound 0.6325 µM) it was 0.204. The relative viability was found to be 0.204 with IPA-3 + Dasatinib (first compound 2 µM); 0.163 with IPA-3 + Dasatinib (first compound 6.325 µM); 0.211 with IPA-3 + Dasatinib (first compound 20 µM); 0.901 in the assay with Doramapimod + Navitoclax (first compound 0.02 µM); 0.831 in the assay with Doramapimod + Navitoclax (first compound 0.06325 µM); 0.812 with Doramapimod + Navitoclax (first compound 0.2 µM). Further, the relative viability amounted to 1.33 with Doramapimod + Navitoclax (first compound 0.6325 µM) and 0.804 with Doramapimod + Navitoclax (first compound 2 µM).
Turning to NCI-H3122, the relative viability in assay [1] (first compound 0.02 µM) stood at 0.18; in assay [1] (first compound 0.06325 µM), 0.176; in assay [1] (first compound 0.2 µM) it was 0.191; in assay [1] (first compound 0.6325 µM), 0.2; in assay [1] (first compound 2 µM), 0.213; with RAF265 + AZD7762 (first compound 0.01 µM), 1.03. Also, the relative viability was 1.17 with RAF265 + AZD7762 (first compound 0.03162 µM); 1.02 in the assay with RAF265 + AZD7762 (first compound 0.1 µM); 0.949 with RAF265 + AZD7762 (first compound 0.3162 µM); 0.862 with RAF265 + AZD7762 (first compound 1 µM); 0.804 in the assay with IPA-3 + Dasatinib (first compound 0.2 µM); 0.751 with IPA-3 + Dasatinib (first compound 0.6325 µM). Moreover, the relative viability with IPA-3 + Dasatinib (first compound 2 µM) is 0.847; in the assay with IPA-3 + Dasatinib (first compound 6.325 µM), 0.919; with IPA-3 + Dasatinib (first compound 20 µM) it was 0.926; in the assay with Doramapimod + Navitoclax (first compound 0.02 µM), 1.03; in the assay with Doramapimod + Navitoclax (first compound 0.06325 µM), 0.992; in the assay with Doramapimod + Navitoclax (first compound 0.2 µM), 1. The relative viability was 1.09 in the assay with Doramapimod + Navitoclax (first compound 0.6325 µM) and 0.914 in the assay with Doramapimod + Navitoclax (first compound 2 µM).
On to PC-3 [JPC-3], for which the relative viability was 0.588 in assay [1] (first compound 0.02 µM); 0.549 in assay [1] (first compound 0.06325 µM); 0.549 in assay [1] (first compound 0.2 µM); 0.571 in assay [1] (first compound 0.6325 µM); 0.565 in assay [1] (first compound 2 µM); 0.879 with RAF265 + AZD7762 (first compound 0.01 µM). For the same cell line, the relative viability was determined as 0.771 with RAF265 + AZD7762 (first compound 0.03162 µM); 0.742 with RAF265 + AZD7762 (first compound 0.1 µM); 0.445 with RAF265 + AZD7762 (first compound 0.3162 µM); 0.479 in the assay with RAF265 + AZD7762 (first compound 1 µM); 1.08 in the assay with IPA-3 + Dasatinib (first compound 0.2 µM); 1.02 with IPA-3 + Dasatinib (first compound 0.6325 µM). Further, the relative viability in the assay with IPA-3 + Dasatinib (first compound 2 µM) was 1.04; in the assay with IPA-3 + Dasatinib (first compound 6.325 µM), 0.865; with IPA-3 + Dasatinib (first compound 20 µM) it was 1.01; with Doramapimod + Navitoclax (first compound 0.02 µM) it was 0.923; with Doramapimod + Navitoclax (first compound 0.06325 µM), 0.767; in the assay with Doramapimod + Navitoclax (first compound 0.2 µM) it was 0.737. For the same cell line, the relative viability was 0.869 with Doramapimod + Navitoclax (first compound 0.6325 µM) and 0.723 with Doramapimod + Navitoclax (first compound 2 µM).
Consider PC-14, for which the relative viability in assay [1] (first compound 0.02 µM) came to 0.552; in assay [1] (first compound 0.06325 µM) it was 0.594; in assay [1] (first compound 0.2 µM), 0.487; in assay [1] (first compound 0.6325 µM), 0.552; in assay [1] (first compound 2 µM) it was 0.508; in the assay with RAF265 + AZD7762 (first compound 0.01 µM), 0.424. For the same cell line, the relative viability was found to be 0.451 with RAF265 + AZD7762 (first compound 0.03162 µM); 0.369 with RAF265 + AZD7762 (first compound 0.1 µM); 0.378 with RAF265 + AZD7762 (first compound 1 µM); 0.29 in the assay with IPA-3 + Dasatinib (first compound 0.2 µM); 0.278 with IPA-3 + Dasatinib (first compound 0.6325 µM); 0.271 with IPA-3 + Dasatinib (first compound 2 µM). Besides, the relative viability was found to be 0.268 with IPA-3 + Dasatinib (first compound 6.325 µM); 0.309 with IPA-3 + Dasatinib (first compound 20 µM); 1.02 in the assay with Doramapimod + Navitoclax (first compound 0.02 µM); 1.02 with Doramapimod + Navitoclax (first compound 0.06325 µM); 0.935 with Doramapimod + Navitoclax (first compound 0.2 µM); 1.09 with Doramapimod + Navitoclax (first compound 0.6325 µM). For the same cell line, in the assay with Doramapimod + Navitoclax (first compound 2 µM), the relative viability came to 0.799.
As for RERF-LC-KJ, the relative viability in assay [1] (first compound 0.02 µM) was found to be 1.11; in assay [1] (first compound 0.06325 µM), 1.04; in assay [1] (first compound 0.2 µM), 1.06; in assay [1] (first compound 0.6325 µM), 1.17; in assay [1] (first compound 2 µM), 1.2; with RAF265 + AZD7762 (first compound 0.01 µM), 1.1. The relative viability with RAF265 + AZD7762 (first compound 0.03162 µM) was found to be 1.03; in the assay with RAF265 + AZD7762 (first compound 0.1 µM) it was 0.765; in the assay with RAF265 + AZD7762 (first compound 0.3162 µM) it was 0.756; in the assay with RAF265 + AZD7762 (first compound 1 µM), 0.557; with IPA-3 + Dasatinib (first compound 0.2 µM), 0.983; with IPA-3 + Dasatinib (first compound 0.6325 µM), 0.729. In addition, the relative viability in the assay with IPA-3 + Dasatinib (first compound 2 µM) came out at 0.837; in the assay with IPA-3 + Dasatinib (first compound 6.325 µM) it was 0.759; with IPA-3 + Dasatinib (first compound 20 µM), 0.789; with Doramapimod + Navitoclax (first compound 0.02 µM), 1.09; with Doramapimod + Navitoclax (first compound 0.06325 µM), 1.35; with Doramapimod + Navitoclax (first compound 0.2 µM) it was 0.858. For the same cell line, the relative viability with Doramapimod + Navitoclax (first compound 0.6325 µM) amounted to 0.853; with Doramapimod + Navitoclax (first compound 2 µM) it was 1.01.

Values taken from the supplement of paper PMC10307832.
